Publication PMC12232897, “Harnessing Negative Photochromism in Styryl Cyanines for Light‐Modulated Proton Transport” (Angewandte Chemie (International Ed. in English), 2025)

Columns and labels:
Format in all cases: physicochemical
[1] = pKa in the dark and under light irradiation; settings: for pKa: water:DMSO 99:1, dark, read-out: pKa dark (open form)
Description: Since light‐induced cyclization is also associated with a change in the nature of the amino group of 1a–e, we investigated the change in their pK a upon light irradiation. This phenomenon has been already reported in the literature for other photoresponsive molecules,^[ [41], [42] ^] and it is recognized that, apart from being key in many biological processes, is a powerful tool for potential applications in catalysis^[ [43] ^] or self‐assembly.^[ [44] ^] […] Moreover, for compounds 1b and 1c, bearing methoxy groups, the change in pK a generated upon light irradiation is considerably smaller than for compounds 1d and 1e, bearing fluorine groups. This difference can be easily associated with the nature of the substituents, where for 1d–e the electron‐withdrawing effect of the fluorine favors a higher acidity of the closed isomers, contrarily to the effect of the electron‐donating groups for 1b–c.

Solubility in solvents = settings: solvent
Description: Having explored the effect of substituents, we next focused on the impact of the medium. […] These findings can be explained using the reported hydrogen‐bond donor (HBD) acidity (Taft–Kamlet α‐scale) of the utilized solvents.^[ [39] ^] Such a big difference in thermal half‐life has to be associated with the proton transfer from the secondary amine (in the closed form) to the phenol group since the back relaxation from the closed form to the open conjugated form is a […] process. We hypothesize that solvents like water and methanol trigger a Grotthus‐like proton transfer mechanism which speeds up the back‐relaxation process, similar to what was previously reported for other phenol‐bearing photoswitches.^[ [40] ^]
Similar to what is observed for the other compounds, the half‐life of closed 1f in water is extremely small (Table 1). This opens the opportunity of using 1f in out‐of‐equilibrium^[ [45] ^] and dissipative water‐based systems. Moreover, irradiation of 1f triggers the photo reactions that generate its respective closed indole‐like form, which compared to the closed forms of 1a–e also has a lower value of pK^hν (Table 1) and generates a higher ΔpK a value between the open and closed forms, being 1.7 pK a units, thanks to the electron‐withdrawing effect coming from the presence of a sulfonate group.

[2] = Fatigue resistance / photostability under 365 nm irradiation; settings: UV–vis absorbance kinetic experiments

SMILES: CC1(C)C(/C=C/c2cc(F)ccc2O)=Nc2ccccc21 [1e]
- pKa [1]: 4.3

SMILES: COc1ccc(O)c(/C=C/C2=Nc3ccccc3C2(C)C)c1 [1c]
- pKa [1]: 4.3

SMILES: CC1(C)C(/C=C/c2ccccc2O)=Nc2ccc(F)cc21 [1d]
- pKa [1]: 4.3

SMILES: CC1(C)C(/C=C/c2ccccc2O)=Nc2ccccc21 [1a]
- pKa [1]: 4.3
- Solubility (Solubility in solvents): soluble in both polar and apolar solvents

SMILES: CC1(C)C(/C=C/c2ccccc2O)=Nc2ccc(S(=O)(=O)[O-])cc21.[K+] [1f]
- ΔpKa between the open and closed forms ([1]; water:DMSO 99:1): 1.7 pK a units
- pKa [1]: 3.9
- Solubility (Solubility in solvents): fully soluble and fully switchable in water

SMILES: COc1ccc2c(c1)C(C)(C)C(/C=C/c1ccccc1O)=N2 [1b]
- pKa [1]: 4.6

SMILES: COc1ccccc1/C=C/C1=Nc2ccccc2C1(C)C [1g]
- Photostability on prolonged irradiation at 365 nm [2]: photodegradation of the sample
